# From patent US12186283B2, “Bismuth-thiol compositions and methods of use” (Microbion Corporation, priority 2018, dated 2025)
# Marks after values point to notes of the source that are not given here.
# Tests used:
# Assay type in all cases: cell-based
# Candida krusei = experiment: Broth microdilution MIC, yeast (Example 13)
# Candida glabrata = experiment: Broth microdilution MIC, yeast (Example 13)
# Aspergillus spp. = experiment: Broth microdilution MIC/MEC, mold (Example 13); details: for MIC0 (complete inhibition): comparators, read time not given
# Candida auris = experiment: Broth microdilution MIC, yeast (Example 13)
# Candida albicans = experiment: Broth microdilution MIC, yeast (Example 13)
# [1] = C. krusei ATCC 14243, Susceptible
# [2] = C. krusei ATCC 96685, Susceptible
# [3] = C. krusei MMX 7125, Susceptible
# [4] = C. krusei MMX 7128, Susceptible
# [5] = C. krusei MMX 7141, Susceptible
# [6] = C. krusei MMX 7155, Susceptible
# [7] = C. krusei MMX 7563, Susceptible
# [8] = C. krusei MMX 9878, MICA-I, VORI-I
# [9] = Candida glabrata ATCC 90030, Susceptible
# [10] = Candida glabrata ATCC MYA-2950, Susceptible
# [11] = Candida glabrata MMX 7087, Susceptible
# [12] = Candida glabrata MMX 7093, FLU-R
# [13] = Candida glabrata MMX 7101, FLU-R
# [14] = Candida glabrata MMX 7103, CASP-R, MICA-R
# [15] = Candida glabrata MMX 7111, Susceptible
# [16] = Candida glabrata MMX 7285, CASP-R, MICA-R
# [17] = Candida glabrata MMX 7307, CASP-R, MICA-R, FLU-R
# [18] = Candida glabrata MMX 7549, Susceptible
# [19] = C. auris MMX 9863, FLU-R, VORI-R
# [20] = C. auris MMX 9864, FLU-R, VORI-R
# [21] = C. auris MMX 9865, FLU-R, VORI-R
# [22] = C. auris MMX 9866, FLU-R, VORI-R
# [23] = C. auris MMX 9867, FLU-R, VORI-R
# [24] = C. auris MMX 9868, FLU-R, VORI-R
# [25] = C. auris MMX 9869, FLU-R, VORI-R
# [26] = C. auris MMX 9870, FLU-R, VORI-R
# [27] = Candida albicans ATCC 90028, Susceptible, 24 hr
# [28] = Candida albicans ATCC 204276, MICA-R, 24 hr
# [29] = Candida albicans ATCC MYA-2732, FLU-R, VORI-I, 24 hr
# [30] = Candida albicans MMX 7053, Susceptible, 24 hr
# [31] = Candida albicans MMX 7067, FLU-R, VORI-R, 24 hr
# [32] = Candida albicans MMX 7403, Susceptible, 24 hr
# [33] = Candida albicans MMX 7424, CASP-R, MICA-R, 24 hr
# [34] = Candida albicans MMX 7430, Susceptible, 24 hr
# [35] = Candida albicans MMX 7437, FLU-I, 24 hr
structure (smiles),measurement,setting,value
C[C@@H]1[C@H](O)[C@@H](C)/C=C/C=C/C=C/C=C/C=C/C=C/C=C/[C@H](O[C@@H]2O[C@H](C)[C@@H](O)[C@H](N)[C@@H]2O)C[C@@H]2O[C@](O)(C[C@@H](O)C[C@@H](O)[C@H](O)CC[C@@H](O)C[C@@H](O)CC(=O)O[C@H]1C)C[C@H](O)[C@H]2C(=O)O [AMP B],MIC0 (complete inhibition),"Candida krusei; C. krusei ATCC 6258, MICA-I",0.5 µg/mL
same,MIC0 (complete inhibition),Candida krusei; [1],0.25 µg/mL
same,MIC0 (complete inhibition),Candida krusei; [2],0.5 µg/mL
same,MIC0 (complete inhibition),Candida krusei; [3],0.5 µg/mL
same,MIC0 (complete inhibition),Candida krusei; [4],0.5 µg/mL
same,MIC0 (complete inhibition),Candida krusei; [5],0.25 µg/mL
same,MIC0 (complete inhibition),"Candida krusei; C. krusei MMX 7153, MICA-R",0.5 µg/mL
same,MIC0 (complete inhibition),Candida krusei; [6],0.25 µg/mL
same,MIC0 (complete inhibition),Candida krusei; [7],0.5 µg/mL
same,MIC0 (complete inhibition),Candida krusei; [8],0.5 µg/mL
same,MIC0 (complete inhibition),Candida glabrata; [9],0.25 µg/mL
same,MIC0 (complete inhibition),Candida glabrata; [10],0.12 µg/mL
same,MIC0 (complete inhibition),Candida glabrata; [11],0.12 µg/mL
same,MIC0 (complete inhibition),Candida glabrata; [12],0.25 µg/mL
same,MIC0 (complete inhibition),Candida glabrata; [13],0.25 µg/mL
same,MIC0 (complete inhibition),Candida glabrata; [14],0.25 µg/mL
same,MIC0 (complete inhibition),Candida glabrata; [15],0.25 µg/mL
same,MIC0 (complete inhibition),Candida glabrata; [16],0.25 µg/mL
same,MIC0 (complete inhibition),Candida glabrata; [17],0.25 µg/mL
same,MIC0 (complete inhibition),Candida glabrata; [18],0.25 µg/mL
same,MIC0 (complete inhibition),Aspergillus spp.; A. flavus ATCC 22546,1 µg/mL
same,MIC0 (complete inhibition),Aspergillus spp.; A. flavus ATCC 204304,1 µg/mL
same,MIC0 (complete inhibition),Aspergillus spp.; A. flavus MMX 7935,1 µg/mL
same,MIC0 (complete inhibition),Aspergillus spp.; A. fumigatus ATCC 204305,1 µg/mL
same,MIC0 (complete inhibition),Aspergillus spp.; A. fumigatus ATCC MYA-3626,1 µg/mL
same,MIC0 (complete inhibition),Aspergillus spp.; A. fumigatus MMX 5934,1 µg/mL
same,MIC0 (complete inhibition),Aspergillus spp.; A. fumigatus MMX 5938,1 µg/mL
same,MIC0 (complete inhibition),Aspergillus spp.; A. fumigatus MMX 5939,1 µg/mL
same,MIC0 (complete inhibition),Aspergillus spp.; A. niger ATCC 29508,0.25 µg/mL
same,MIC0 (complete inhibition),Aspergillus spp.; A. terreus MMX 8229,0.25 µg/mL
same,MIC0 (complete inhibition),"Candida auris; C. auris MMX 9862, Susceptible",0.25 µg/mL
same,MIC0 (complete inhibition),Candida auris; [19],0.12 µg/mL
same,MIC0 (complete inhibition),Candida auris; [20],0.25 µg/mL
same,MIC0 (complete inhibition),Candida auris; [21],0.25 µg/mL
same,MIC0 (complete inhibition),Candida auris; [22],0.5 µg/mL
same,MIC0 (complete inhibition),Candida auris; [23],0.5 µg/mL
same,MIC0 (complete inhibition),Candida auris; [24],0.25 µg/mL
same,MIC0 (complete inhibition),Candida auris; [25],1 µg/mL
same,MIC0 (complete inhibition),Candida auris; [26],1 µg/mL
same,MIC0 (complete inhibition),"Candida auris; C. auris MMX 9871, Susceptible",1 µg/mL
same,MIC0 (complete inhibition),Candida albicans; [27],0.25 µg/mL
same,MIC0 (complete inhibition),Candida albicans; [28],0.25 µg/mL
same,MIC0 (complete inhibition),Candida albicans; [29],0.25 µg/mL
same,MIC0 (complete inhibition),Candida albicans; [30],0.12 µg/mL
same,MIC0 (complete inhibition),Candida albicans; [31],0.25 µg/mL
same,MIC0 (complete inhibition),Candida albicans; [32],0.25 µg/mL
same,MIC0 (complete inhibition),Candida albicans; [33],0.25 µg/mL
same,MIC0 (complete inhibition),Candida albicans; [34],0.25 µg/mL
same,MIC0 (complete inhibition),Candida albicans; [35],0.25 µg/mL
same,MIC0 (complete inhibition),"Candida albicans; Candida albicans MMX 7445, FLU-R, VORI-R, 24 hr",0.12 µg/mL
CC[C@H](C)C[C@H](C)CCCCCCCCC(=O)N[C@H]1C[C@@H](O)[C@@H](NCCN)NC(=O)[C@@H]2[C@@H](O)CCN2C(=O)[C@H]([C@H](O)CCN)NC(=O)[C@H]([C@H](O)[C@@H](O)c2ccc(O)cc2)NC(=O)[C@@H]2C[C@@H](O)CN2C(=O)[C@H]([C@@H](C)O)NC1=O [CASP],MIC2 (50% inhibition),"Candida krusei; C. krusei ATCC 6258, MICA-I",0.25 µg/mL
same,MIC2 (50% inhibition),Candida krusei; [1],0.012 µg/mL
same,MIC2 (50% inhibition),Candida krusei; [2],0.12 µg/mL
same,MIC2 (50% inhibition),Candida krusei; [3],0.25 µg/mL
same,MIC2 (50% inhibition),Candida krusei; [4],0.25 µg/mL
same,MIC2 (50% inhibition),Candida krusei; [5],0.25 µg/mL
same,MIC2 (50% inhibition),"Candida krusei; C. krusei MMX 7153, MICA-R",0.25 µg/mL
same,MIC2 (50% inhibition),Candida krusei; [6],0.25 µg/mL
same,MIC2 (50% inhibition),Candida krusei; [7],0.12 µg/mL
same,MIC2 (50% inhibition),Candida krusei; [8],0.25 µg/mL
same,MIC2 (50% inhibition),Candida glabrata; [9],0.12 µg/mL
same,MIC2 (50% inhibition),Candida glabrata; [10],0.12 µg/mL
same,MIC2 (50% inhibition),Candida glabrata; [11],0.12 µg/mL
same,MIC2 (50% inhibition),Candida glabrata; [12],0.12 µg/mL
same,MIC2 (50% inhibition),Candida glabrata; [13],0.12 µg/mL
same,MIC2 (50% inhibition),Candida glabrata; [14],>8 µg/mL
same,MIC2 (50% inhibition),Candida glabrata; [15],0.12 µg/mL
same,MIC2 (50% inhibition),Candida glabrata; [16],0.5 µg/mL
same,MIC2 (50% inhibition),Candida glabrata; [17],>8 µg/mL
same,MIC2 (50% inhibition),Candida glabrata; [18],0.06 µg/mL
same,MEC (minimum effective concentration),Aspergillus spp.; A. flavus ATCC 22546,0.06 µg/mL
same,MEC (minimum effective concentration),Aspergillus spp.; A. flavus ATCC 204304,0.06 µg/mL
same,MEC (minimum effective concentration),Aspergillus spp.; A. flavus MMX 7935,0.03 µg/mL
same,MEC (minimum effective concentration),Aspergillus spp.; A. fumigatus ATCC 204305,0.25 µg/mL
same,MEC (minimum effective concentration),Aspergillus spp.; A. fumigatus ATCC MYA-3626,0.06 µg/mL
same,MEC (minimum effective concentration),Aspergillus spp.; A. fumigatus MMX 5934,0.12 µg/mL
same,MEC (minimum effective concentration),"Aspergillus spp.; A. fumigatus MMX 5938, 48 hr only, insufficient growth for 24 hr read",0.12^b μg/mL
same,MEC (minimum effective concentration),Aspergillus spp.; A. fumigatus MMX 5939,0.12 µg/mL
same,MEC (minimum effective concentration),"Aspergillus spp.; A. niger ATCC 29508, 48 hr only, insufficient growth for 24 hr read",0.06^b μg/mL
same,MEC (minimum effective concentration),"Aspergillus spp.; A. terreus MMX 8229, 48 hr only, insufficient growth for 24 hr read",0.12^b μg/mL
same,MIC2 (50% inhibition),"Candida auris; C. auris MMX 9862, Susceptible",0.12 µg/mL
same,MIC2 (50% inhibition),Candida auris; [19],0.12^b μg/mL
same,MIC2 (50% inhibition),Candida auris; [20],0.25^b μg/mL
same,MIC2 (50% inhibition),Candida auris; [21],0.25^b μg/mL
same,MIC2 (50% inhibition),Candida auris; [22],0.12^b μg/mL
same,MIC2 (50% inhibition),Candida auris; [23],0.12 µg/mL
same,MIC2 (50% inhibition),Candida auris; [24],0.25 µg/mL
same,MIC2 (50% inhibition),Candida auris; [25],0.25 µg/mL
same,MIC2 (50% inhibition),Candida auris; [26],0.25 µg/mL
same,MIC2 (50% inhibition),"Candida auris; C. auris MMX 9871, Susceptible",0.25^b μg/mL
same,MIC2 (50% inhibition),Candida albicans; [27],0.06 µg/mL
same,MIC2 (50% inhibition),Candida albicans; [28],0.25 µg/mL
same,MIC2 (50% inhibition),Candida albicans; [29],0.06 µg/mL
same,MIC2 (50% inhibition),Candida albicans; [30],0.06 µg/mL
same,MIC2 (50% inhibition),Candida albicans; [31],0.06 µg/mL
same,MIC2 (50% inhibition),Candida albicans; [32],0.06 µg/mL
same,MIC2 (50% inhibition),Candida albicans; [33],8 µg/mL
same,MIC2 (50% inhibition),Candida albicans; [34],0.06 µg/mL
same,MIC2 (50% inhibition),Candida albicans; [35],0.06 µg/mL
same,MIC2 (50% inhibition),"Candida albicans; Candida albicans MMX 7445, FLU-R, VORI-R, result after 48 hr incubation (insufficient growth at 24 hr)",0.06^a μg/mL
